Experimental data taken from patent US20130143929A1, “FUNGICIDAL IMIDAZOLES” (EI DU PONT DE NEMOURS AND COMPANY, priority 2010, published 2013).
Marks after values point to notes of the source that are not given here.

Key:
Format in all cases: in vivo
[1] = test system: Puccinia recondite f. sp. tritici (the causal agent of wheat leaf rust); assay: Test A: wheat leaf rust, preventive spray on wheat seedlings, visual disease rating; conditions: for Test A rating (100 = 100% disease control, 0 = no disease control relative to the controls): wheat leaf rust, preventive spray on wheat seedlings
Description: (§1) General protocol for preparing test suspensions for Tests A-D: the test compounds were first dissolved in acetone in an amount equal to 3% of the final volume and then suspended at the desired concentration (in ppm) in acetone and purified water (50/50 mix by volume) containing 250 ppm of the surfactant Trem® 014 (polyhydric alcohol esters). The resulting test suspensions were then used in Tests A-D. Spraying a 200 ppm test suspension to the point of run-off on the test plants was the equivalent of a rate of 800 g/ha.
The test suspension was sprayed to the point of run-off on wheat seedlings. The following day the seedlings were inoculated with a spore suspension of Puccinia recondite f. sp. tritici (the causal agent of wheat leaf rust) and incubated in a saturated atmosphere at 20° C. for 24 h, and then moved to a growth chamber at 20° C. for 7 days, after which time visual disease ratings were made.
(§2) Results for Tests A-E are given in Table A. In the Table, a rating of 100 indicates 100% disease control and a rating of 0 indicates no disease control (relative to the controls). A dash (—) indicates no test results. An asterisk “*” next to the rating value indicates a 40 ppm test suspension was used.

[2] = test system: Blumeria graminis f. sp. tritici (also known as Erysiphe graminis f. sp. tritici, the causal agent of wheat powdery mildew); assay: Test D: wheat powdery mildew, preventive spray on wheat seedlings, visual disease rating; conditions: for Test D rating (100 = 100% disease control, 0 = no disease control relative to the controls): wheat powdery mildew, preventive spray on wheat seedlings
Description: as §1
The test suspension was sprayed to the point of run-off on wheat seedlings. The following day the seedlings were inoculated with a spore dust of Blumeria graminis f. sp. tritici, (also known as Erysiphe graminis f. sp. tritici, the causal agent of wheat powdery mildew) and incubated in a growth chamber at 20° C. for 8 days, after which time visual disease ratings were made.
as §2

[3] = test system: Botrytis cinerea (the causal agent of tomato Botrytis); assay: Test C: tomato Botrytis, preventive spray on tomato seedlings, visual disease rating; conditions: for Test C rating (100 = 100% disease control, 0 = no disease control relative to the controls): tomato Botrytis, preventive spray on tomato seedlings
Description: as §1
The test suspension was sprayed to the point of run-off on tomato seedlings. The following day the seedlings were inoculated with a spore suspension of Botrytis cinerea (the causal agent of tomato Botrytis) and incubated in a saturated atmosphere at 20° C. for 48 h, and then moved to a growth chamber at 24° C. for 3 days, after which time visual disease ratings were made.
as §2

[4] = test system: Septoria tritici (the causal agent of wheat leaf blotch); assay: Test B: wheat leaf blotch, preventive spray on wheat seedlings, visual disease rating; conditions: wheat leaf blotch, preventive spray on wheat seedlings
Description: as §1
The test suspension was sprayed to the point of run-off on wheat seedlings. The following day the seedlings were inoculated with a spore suspension of Septoria tritici (the causal agent of wheat leaf blotch) and incubated in a saturated atmosphere at 24° C. for 48 h, and then moved to a growth chamber at 20° C. for 19 days, after which time visual disease ratings were made.
as §2

[5] = no asterisk (standard test suspension concentration, not 40 ppm)
[6] = asterisk: 40 ppm test suspension
[7] = no asterisk: standard test suspension concentration, 100 = 100% disease control, 0 = no control relative to controls

Row | Structure (SMILES) | Test A rating (100 = 100% disease control, 0 = no disease control relative to the controls) [1, 5] | Test D rating (100 = 100% disease control, 0 = no disease control relative to the controls) [2, 5] | Test C rating (100 = 100% disease control, 0 = no disease control relative to the controls) [3, 5] | Test B rating (100 = 100% disease control, 0 = no disease control relative to the controls) [4, 5] | Test B rating (100 = 100% disease control, 0 = no disease control relative to the controls) [4, 6] | Test A rating (100 = 100% disease control, 0 = no disease control relative to the controls) [1, 6] | Test D rating (100 = 100% disease control, 0 = no disease control relative to the controls) [2, 6] | Test C rating (100 = 100% disease control, 0 = no disease control relative to the controls) [3, 6] | Test A rating (% disease control, wheat leaf rust) [1, 7] | Test D rating (% disease control, wheat powdery mildew) [2, 7] | Test C rating (% disease control, tomato Botrytis) [3, 7]
1 | Cc1nc(Cl)n(-c2c(F)cc(F)cc2Cl)c1C(O)c1ccc(F)cc1F (racemic) [compound 8] | 100% | 100% | 100% | 100% |  |  |  |  |  |  | 
2 | Cc1nc(Cl)n(-c2c(F)cc(F)cc2Cl)c1C(O)c1ccc(F)cc1Cl (racemic) [compound 9] | 100% | 100% | 100% | 100% |  |  |  |  |  |  | 
3 | Cc1nc(Cl)n(-c2ccc(F)cc2Br)c1C(O)c1ccc(Cl)cc1Cl (racemic) [compound 11] | 99% | 0% | 31% | 68% |  |  |  |  |  |  | 
4 | Cc1ncn(-c2c(F)cc(F)cc2Cl)c1C(O)c1ccc(F)cc1F (racemic) [compound 12] | 99% | 21% | 95% | 100% |  |  |  |  |  |  | 
5 | Cc1cc(F)ccc1C(O)c1c(C)nc(Cl)n1-c1c(F)cc(F)cc1Cl (racemic) [compound 13] | 100% | 100% | 99% |  | 100* % |  |  |  |  |  | 
6 | Cc1cc(F)ccc1C(O)c1c(Cl)nc(Cl)n1-c1c(F)cc(F)cc1Cl (racemic) [compound 14] | 100% | 100% | 99% |  | 100* % |  |  |  |  |  | 
7 | Cc1cc(F)ccc1C(O)c1c(C)ncn1-c1c(F)cc(F)cc1Cl (racemic) [compound 15] | 0% | 0% | 15% |  | 0* % |  |  |  |  |  | 
8 | OC(c1c(F)ccc(Br)c1Cl)c1c(Cl)nc(Cl)n1-c1ccc(F)cc1Cl (racemic) [compound 18] | 100% | 91% | 100% | 100% |  |  |  |  |  |  | 
9 | Cc1cc(F)ccc1C(O)c1c(Cl)nc(Cl)n1-c1c(F)cccc1Cl (racemic) [compound 23] | 100% | 100% | 100% | 100% |  |  |  |  |  |  | 
10 | Cc1nc(Cl)n(-c2c(F)cccc2F)c1C(O)c1c(F)cccc1F (racemic) [compound 24] |  |  |  |  | 100* % | 100* % | 91* % | 100* % |  |  | 
11 | Cc1nc(Cl)n(-c2c(F)cccc2F)c1C(O)c1c(F)ccc(Br)c1F (racemic) [compound 25] |  |  |  |  | 100* % | 99* % | 0* % | 87* % |  |  | 
12 | Cc1nc(Cl)n(-c2c(F)cccc2F)c1C(O)c1ccc(F)cc1F (racemic) [compound 26] |  |  |  |  | 100* % | 100* % | 99* % | 100* % |  |  | 
13 | Cc1nc(Cl)n(-c2ccc(F)cc2Cl)c1C(O)c1c(F)cc(F)cc1F (racemic) [compound 30] | 100% | 100% | 100% | 100% |  |  |  |  |  |  | 
14 | Cc1ncn(-c2ccc(F)cc2Cl)c1C(O)c1ccc(Cl)cc1Cl (racemic) [compound 33] | 100% |  | 100% | 100% |  |  | 0* % |  |  |  | 
15 | Cc1nc(Cl)n(-c2ccc(F)cc2Cl)c1C(O)c1c(F)ccc(Br)c1Cl (racemic) [compound 34] | 99% |  | 99% | 98% |  |  |  |  |  |  | 
16 | Cc1nc(Cl)n(-c2ccc(F)cc2F)c1C(O)c1ccc(F)cc1Cl (racemic) [compound 35] | 100% | 68% | 100% | 100% |  |  |  |  |  |  | 
17 | Cc1nc(Cl)n(-c2ccc(Cl)cc2Cl)c1C(O)c1c(F)cc(Cl)cc1F (racemic) [compound 36] | 99% | 0% | 98% | 100% |  |  |  |  |  |  | 
18 | Cc1nc(Cl)n(-c2ccc(Cl)cc2Cl)c1C(O)c1c(F)ccc(Br)c1Cl (racemic) [compound 37] | 98% | 21% | 91% | 100% |  |  |  |  |  |  | 
19 | COc1cc(F)c(C(O)c2c(Br)ncn2-c2ccc(F)cc2Cl)c(F)c1 (racemic) [compound 232] |  |  |  |  | 59* % | 100* % | 0* % |  |  |  | 
20 | COc1cc(F)c(-n2c(C(O)c3ccc(F)cc3F)cnc2C)c(F)c1 (centres unmarked) [compound 404] |  |  |  |  |  |  |  |  | 98% | 0% | 0%
